According to PMC7641325, “Fragment-based discovery of a new class of inhibitors targeting mycobacterial tRNA modification” (Nucleic Acids Research, 2020):
In brackets after ≈: the same amount, converted by molar mass. Read-outs that look alike come from different tables or passages of the source.

Assays:
[1] = biological target: T1, M. abscessus TrmD (Mycobacteroides abscessus, UniProt B1MDI3); test: biochemical; type: binding; conditions: for LE (ligand efficiency): from M. abscessus TrmD Kd; for fold improvement in affinity (decrease in Kd) over the parent compound: AW3 vs AW2, AW4 vs AW3, AW5 vs AW4
T1 sequence (B1MDI3 entry or part of it): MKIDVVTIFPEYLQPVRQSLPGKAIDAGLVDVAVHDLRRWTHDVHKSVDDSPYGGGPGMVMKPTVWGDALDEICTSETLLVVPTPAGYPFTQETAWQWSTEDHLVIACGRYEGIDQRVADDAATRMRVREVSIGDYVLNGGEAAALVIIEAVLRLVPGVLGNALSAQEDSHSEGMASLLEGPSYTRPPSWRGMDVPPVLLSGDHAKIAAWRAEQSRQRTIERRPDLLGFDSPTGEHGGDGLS

[2] = biological target: T1, M. abscessus TrmD; test: TrmD methylation (methyltransferase) inhibition assay, UPLC readout; type: biochemical; conditions: for IC50: 6.25 μM SAM, 0.1 μM TrmD, 6.25 μM tRNA ProUGG, 1 h room temperature
Description: Assays for quantifying TrmD methylation reactions were carried out in 20 μl reactions consisting of 6.25 μM SAM, 0.1 μM TrmD and 6.25 μM tRNA^ProUGG in the presence of 0–500 μM compounds in serial dilutions using assay buffer containing 50 mM Tris–HCl pH 7.5, 10 mM MgCl2, 24 mM NH4Cl, 5% DMSO and 1 mM DTT in nuclease free water. tRNA sequences were identified from the M. abscessus genome sequence using tRNAscan-SE algorithm, ([38],[39]). […]. The reactions were carried out for 1 h at room temperature followed by addition of 20 mM EDTA to stop the reactions. Each of the 20 μl samples were diluted ten-fold with the UPLC mobile phase solvent A (0.1% formic acid in water), centrifuged for 10 min at 13 000 g, to remove any precipitates, and the supernatant was aliquoted into 96-well plates. 40 μl samples were then injected into Acquity UPLC (Waters) T3 […] column and eluted using a gradient elution consisting of Mobile Phase A: 0.1% formic acid in water and mobile phase B: 0.1% formic acid in 100% methanol for 4 min. The absorbance was monitored using a photodiode array (PDA) detector (Waters) at wavelength range of ƛ: 220–500 nm. All reactions were carried out in triplicate. The blank corrected data were analyzed using Microsoft excel and non-linear regression analysis for IC50 determination were done using GraphPad prism version 7.00, GraphPad Software, La Jolla, CA, USA.

[3] = test system: M. tuberculosis H37Rv; test: MIC measurement, M. tuberculosis; type: cell-based; conditions: Mycobacterium tuberculosis, 336 h, 7H9 base with DPPC, 2 weeks, 37°C, read-out: Minimum inhibitory concentration (MIC) M. tuberculosis
[4] = test system: M. abscessus; test: MIC measurement, M. abscessus; type: cell-based, Mycobacterium abscessus ssp. abscessus (ATCC 19977); conditions: Mycobacteroides abscessus, ATCC19977; ATCC 19977, Middlebrook 7H9 ADC, 37°C; read-out: Minimum inhibitory concentration (MIC) M. abscessus
[5] = test system: M. gordonae; test: MIC measurement, M. gordonae; type: cell-based; conditions: Mycobacterium gordonae; clinical isolate; read-out: Minimum inhibitory concentration (MIC) M. gordonae
[6] = biological target: M. tuberculosis TrmD (Mycobacterium tuberculosis, UniProt P9WFY7); test: Isothermal titration calorimetry (ITC) with M. tuberculosis TrmD; type: binding
Sequence of M. tuberculosis TrmD (P9WFY7 whole entry): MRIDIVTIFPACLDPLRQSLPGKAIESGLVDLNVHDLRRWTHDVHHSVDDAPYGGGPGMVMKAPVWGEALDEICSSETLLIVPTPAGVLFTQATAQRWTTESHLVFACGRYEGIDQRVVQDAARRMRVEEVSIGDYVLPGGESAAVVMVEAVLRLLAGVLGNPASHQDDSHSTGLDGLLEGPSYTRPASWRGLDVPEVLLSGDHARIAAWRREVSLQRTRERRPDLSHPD
Description: ITC experiments to quantify binding of ligands to TrmD were done as described in ([37]) using Malvern MicroCal iTC200 or Auto-iTC200 systems at 25°C. Titrations consisted of an initial injection (0.2 μl), discarded during data processing, followed by either 19 (2 μl) or 39 (1 μl) injections separated by intervals of 60–150 s duration. Protein was dialysed overnight at 4°C in storage buffer (M. abscessus TrmD: 50 mM HEPES pH 7.5, 500 mM NaCl, 5% glycerol; M. tuberculosis TrmD: 25 mM HEPES pH 7.5, 500 mM NaCl). Sample cell and syringe solutions were prepared using the same storage buffer, with a final DMSO concentration of 2–10% according to ligand solubility in the buffer. TrmD concentrations of either 33 or 100 μM were used, with ligand to protein concentration ratios ranging from 10 to 20:1. Control titrations without protein were also performed and subtracted from ligand to protein titrations. Titrations were fitted with Origin software (OriginLab, Northampton, MA, USA), using a one-site binding model with N fixed to 1 only for weakly binding ligands. Titrations were typically performed once (n = 1), with multiple isotherms obtained (n > 1) for key compounds of interest. Kd values are reported to two significant figures. Error provided by Origin software due to model fit is reported when n = 1, whereas standard deviation is reported when n > 1.

[7] = test system: M. abscessus-infected human macrophages; test: Macrophage infection study (CFU of intracellular M. abscessus); type: cell-based, Mycobacterium abscessus; conditions: 25 μM compound, 48 h incubation
Source text: (§1) Blood samples were donated by healthy volunteers who had undertaken informed consent in accordance with local Research Ethics Committee approval. Peripheral blood mononuclear cells were isolated from citrated peripheral blood samples by density gradient separation using Lympholyte (Cedarlane Labs), and subsequent CD14^+ positive selection using the MACS Miltenyi Biotec Human CD14 microbead protocol (Miltenyi Biotec). CD14^+ cells were differentiated into macrophages using recombinant human granulocyte-macrophage colony-stimulating factor (200 ng/ml GM-CSF) and recombinant human interferon gamma (50 ng/ml IFNγ) (Peprotech) in standard tissue culture DMEM media containing fetal calf serum, penicillin and streptomycin. Following removal of antibiotics, macrophages were infected at a multiplicity of infection of 10:1 with M. abscessus 19977 for 2 h, washed in sterile phosphate buffered saline, and then incubated in DMEM media with FCS and 25 μM of compound for 24 and 48 h. At the given time points, supernatant was saved for cell cytotoxicity studies, and M. abscessus survival within the macrophages calculated by macrophage lysis in sterile water, and colony forming unit calculation on Columbia Blood Agar plates (VWR BDH).

[8] = test system: M. chelonae; test: MIC measurement, M. chelonae; type: cell-based; conditions: Mycobacteroides chelonae; clinical isolate; read-out: Minimum inhibitory concentration (MIC) M. chelonae
[9] = test system: human macrophages; test: LDH release cytotoxicity assay; type: cell-based; conditions: at or below a concentration of 150 μM
Source text: as §1, with “Following removal of antibiotics, macrophages were infected at a multiplicity of infection of 10:1 with M. abscessus 19977 for 2 h, washed in sterile phosphate buffered saline, and then incubated in DMEM media with FCS and 25 μM of compound for 24 and 48 h.” left out
Lactate dehydrogenase (LDH) was measured as a biomarker for cellular cytotoxicity using the Pierce LDH Cytotoxicity Assay Kit. Cell supernatant was measured at 2, 24 and 48 h post-infection according to the kit protocol.

[10] = test system: M. avium; test: MIC measurement, M. avium; type: cell-based; conditions: Mycobacterium avium; clinical isolate; read-out: Minimum inhibitory concentration (MIC) M. avium
[11] = test system: M. fortuitum; test: MIC measurement, M. fortuitum; type: cell-based; conditions: Mycolicibacterium fortuitum; clinical isolate; read-out: Minimum inhibitory concentration (MIC) M. fortuitum
[12] = test system: M. terrae; test: MIC measurement, M. terrae; type: cell-based; conditions: Mycolicibacter terrae; clinical isolate; read-out: Minimum inhibitory concentration (MIC) M. terrae
[13] = test system: M. leprae maintained intracellularly in murine bone marrow macrophage; test: Intracellular M. leprae in murine bone marrow macrophages, radiorespirometry; type: cell-based; conditions: Mycobacterium leprae, 168 h, AW7 at 6.2 μM, 7 days, read-out: inhibition of β-oxidation (14C-palmitic acid oxidation, radiorespirometry)
Description: Bone marrow cells were obtained aseptically from both femurs of female BALB/c mice and cultured on plastic cover slips in Dulbecco modified Eagle's medium (DMEM, Life Technologies, USA) supplemented with 10% (v/v) fetal calf serum (Life Technologies), 25 mM/l HEPES (Sigma, USA), 2 mM/l glutamine (Sigma, USA), 50 μg/ml ampicillin (Sigma, USA) and 10 ng/ml of recombinant murine macrophages colony stimulating factor (R&D Systems, USA) for 6–7 days at 37°C and 5% CO2. The cells were infected with freshly harvested nude mice foot pad derived live M. leprae at a multiplicity of infection (MOI) of 20:1 overnight at 33°C and then washed to remove extracellular bacteria. AW7 was added at different concentrations (100–6.25 μM) and the cells were incubated for 7 days at 33°C. Media only and rifampicin at 2.4 μM were used as negative and positive controls. […]
Metabolism of a suspension of M. leprae was measured by evaluating the oxidation of ^14C-palmitic acid to ^14CO2 by radiorespirometry as described previously ([45]). […] In the present study the seventh day cumulative counts per minute (CPM) were recorded and percentage inhibition of metabolism determined as compared to no drug control. Statistical significance between treatment groups and no drug control were determined by Student's t-test and P < 0.05 is considered as significant.

[14] = test system: axenically-maintained M. leprae; test: M. leprae axenic culture, radiorespirometry; type: cell-based, Mycobacterium leprae; conditions: 100-6.25 μM, 7 days, 33°C
Description: Freshly harvested nude mouse foot pad derived M. leprae were suspended in modified 7H12 medium, AW7 was added at different concentrations (100–6.25 μM) and were incubated for 7 days at 33°C. Media only and rifampin (Sigma, USA) at 2.4 μM were used as negative and positive controls. Following incubation aliquots of AW7 treated and control M. leprae were processed for radiorespirometry (RR) as described previously ([43]).
Metabolism of a suspension of M. leprae was measured by evaluating the oxidation of ^14C-palmitic acid to ^14CO2 by radiorespirometry as described previously ([45]). Levels of captured ^14CO2 is proportional to the rate of ^14C-palmitic acid oxidation and used as an indicator of M. leprae viability. In the present study the seventh day cumulative counts per minute (CPM) were recorded and percentage inhibition of metabolism determined as compared to no drug control. Statistical significance between treatment groups and no drug control were determined by Student's t-test and P < 0.05 is considered as significant.

[15] = biological target: T1, M. abscessus TrmD; test: CRISPR-dCas9 knockdown of trmD in M. abscessus (target engagement); conditions: 25 μM AW7, doxycycline 1.5625-100 ng/ml, 72 h; effect not seen with yidC gRNA or empty vector
Source text: The dCas9 encoding plasmid (pTetInt-dcas9-Km) and the second vector containing the sgRNA cassette (pGRNAz) were derived from the tetracycline inducible CRISPr Interference system of Choudhary et al. ([40]) and optimized for M. abscessus ATCC19977. The 20 nucleotides guides targeting yidC(MAB_4953c) and trmD(MAB_3226c) were annealed and cloned in between sphI and aclI of the pGRNAz. As a control the pGRNAz was left empty. The CRISPr-I containing strains were cultivated in Middlebrook 7H9 broth supplemented with 1× ADC, 0.05% tween80 and 0.5% glycerol, hygromycin 1 mg/ml and zeocin 300 μg/ml. The cultures were inoculated at 10^6CFU/ml from an exponentially grown pre-cultures. […] The OD600 was measured and the CFU counted at 72 h.

[16] = ITC, 25°C, M. abscessus TrmD, read-out: Kd

| SMILES | Kd [1, 16] [nM] | LE (ligand efficiency) [1] [kcal/ mol/ heavy atom] | IC50 [2] [nM] | fold improvement in affinity (decrease in Kd) over the parent compound [1] [fold] | MIC [3] [µM] | MIC [4] [µM] | also measured |
| --- | --- | --- | --- | --- | --- | --- | --- |
| Nc1cc(-c2ccc3cc[nH]c3c2)[nH]n1 [AW1] | 110000 ± 11000 | 0.36 | 230000 ± 29000 |  |  |  |  |
| Nc1cc(-c2ccc3ccn(Cc4ccccn4)c3c2)[nH]n1 [AW2] | 12000 ± 1000 | 0.30 | 33000 ± 4000 |  |  |  |  |
| N#Cc1c(N)n[nH]c1-c1ccc2ccn(Cc3ccccn3)c2c1 [AW3] | 500 ± 140 | 0.36 | 310 ± 10 | 25 |  |  | fold decrease in IC50 over the parent compound ([2]; AW3 vs AW2): 100 fold |
| N#Cc1c(N)n[nH]c1-c1ccc2ccn(Cc3ccc(CN4CCCC4)cn3)c2c1 [AW4] | 92 ± 18 | 0.32 |  | 5 |  |  |  |
| N#Cc1c(N)n[nH]c1-c1ccc2ccn(Cc3ccc(CN4CCCC4)cc3)c2c1 [AW5] | 27 ± 4 | 0.34 | 30 ± 3 | > 3 | 12.5 (≈ 4.96 µg/mL) | 50 (≈ 19.8 µg/mL) |  |
| Nc1cc(-c2ccc3ccn(Cc4ccc(CN5CCCC5)cc4)c3c2)[nH]n1 [AW6] |  | 0.31 | 1400 ± 100 |  | 6.3 (≈ 2.34 µg/mL) | 50 (≈ 18.6 µg/mL) | MIC [5]: 100 µM (≈ 37.1 µg/mL); Kd [1]: 490 ± 210 nM; Kd [6]: 900 nM; decrease in CFUs compared to the no drug control [7]: ~82%; MIC [8]: 100 µM (≈ 37.1 µg/mL); cellular toxicity (LDH release) [9]: neither compound caused cellular toxicity; MIC [10]: 200 µM (≈ 74.3 µg/mL); MIC [11]: 100 µM (≈ 37.1 µg/mL); MIC [12]: 100 µM (≈ 37.1 µg/mL) |
| CN1CCN(Cc2ccc(Cn3ccc4ccc(-c5[nH]nc(N)c5C#N)cc43)cc2)CC1 [AW7] |  | 0.30 | 69 ± 7 |  | 6.3 (≈ 2.68 µg/mL) | 50 (≈ 21.3 µg/mL) | inhibition at 6.2 µM [13]: > 50%; inhibitory activity against axenic M. leprae (radiorespirometry) [14]: show inhibitory activity; MIC [5]: 100 µM (≈ 42.6 µg/mL); Kd [1]: 73 ± 30 nM; Kd [6]: 330 nM; sensitivity of M. abscessus to the compound on incremental silencing of TrmD [15]: progressively more sensitive to AW7; decrease in CFUs compared to the no drug control [7]: 95%; MIC [8]: 100 µM (≈ 42.6 µg/mL); cellular toxicity (LDH release) [9]: neither compound caused cellular toxicity; MIC [10]: 100 µM (≈ 42.6 µg/mL); MIC [11]: 100 µM (≈ 42.6 µg/mL); MIC [12]: 25 µM (≈ 10.6 µg/mL) |
| COc1ccc(-c2cc(N)n[nH]2)cc1 [Fragment 23] | 170000 | 0.37 |  |  |  |  |  |
| OB(O)c1ccc2cc[nH]c2c1 [Fragment 24] | 260000 | 0.41 |  |  |  |  |  |
